The values below come from US7399786B2, “Derivatives of amino acids for treatment of obesity and related disorders” (Bexel Pharmaceuticals, Inc., priority 2005, dated 2008).

Experiment [1] in a line: High fat diet induced obesity (DIO) model. The class given is in vivo, C57BL/6J male mice. Particulars: DIO mice. The protocol:
Six week old C57BL/6J male mice were fed with high fat (60%) diet for 14 days. From day 15 onwards animals were treated with compound 9 at a dose of 50 mg/kg body weight or sibutramine (5 mg/kg bw) for 60 days. All the animals were dosed once daily during morning hours up to day 15. From day 16 to end of the study animals were dosed during evening hours.

Experiment [2] relates to IL-6. In words: IL-6 inhibition in hPBMC, LPS challenge, ELISA. The class given is cell-based, human. Particulars: 1 μM, LPS 100 ng/mL for 20 hours. The protocol:
(§1) Cells (1×10^6/mL) were challenged with lipopolysaccharides (LPS) at a concentration of (100 ng/mL) for 20 hours. Cell supernatant was analyzed for the presence of IL-6 and IL-1β by antibody directed enzyme-linked immunoassay (R & D Systems, MN, USA).
Background: In an ELISA, binding on a coated surface is turned into a signal by an enzyme label.

Experiment [3] has as its system 3T3-L1 cells. The experiment in a line: PPARγ agonist induced adipocyte differentiation, Oil red O staining. Type of experiment: cell-based, mouse. To be noted: 11 days. The protocol:
Adipogenesis is defined as the production of fat laden adipocytes from fibroblast cells. All known PPARγ agonists induce adipogenesis after a long term of treatment. […] Cells were cultured for 11 days and every 48 h fresh drug was given while changing the media.

Experiment [4] relates to IL-1β. In words: IL-1β inhibition in hPBMC, LPS challenge, ELISA. Particulars: 1 μM, LPS 100 ng/mL for 20 hours. Type of experiment: cell-based, human. As for the experimental part:
as §1

Experiment [5] can be described thus: Hypoglycemic effect in normal lean mice. Type of experiment: in vivo, C57BL/6J lean male mice. To be noted: 50 mg/kg body weight for 60 days, measured every third day. As for the experimental part:
C57BL/6J lean male mice were fed, ad libitum, with laboratory rodent diet and purified water. Animals were treated with compound 9 at a dose of 50 mg/kg body weight for 60 days. Blood glucose was measured with an ACCUCHECK® glucose meter every third day during morning hours. No change in blood glucose levels was observed.

Experiment [6] has as its system LPS induced NO. The experiment in a line: Inhibition of LPS induced NO in mouse peritoneal macrophages. To be noted: compound 1 hour then LPS 10 μg/mL for 48 hrs. Type of experiment: cell-based. As for the experimental part:
Mouse peritoneal macrophages were isolated by injecting warm PBS in the peritoneum and cells were tapped out with syringe and stored in a tube. After two washes with PBS, cells were plated in 96 well plates and incubated with compound 9 for 1 hour and then challenged with LPS (10 μg/mL) for 48 hrs. Supernatant was assayed for NO by ELISA kit (R&D Biosystems).

The mark [7] stands for this setting: 50 mg/kg for 60 days, compared to control animals.

With `CC(C)CC(N(C)C)C1(c2ccc(Cl)cc2)CCC1` (centres unmarked) [Sibutramine, reference compound], the bodyweight gain result in experiment [1] (5 mg/kg bw once daily for 60 days) is given as “Reduced Bodyweight Gain”.

Turning to `CN(C)C(=O)[C@@H](N)Cc1ccc(Oc2ccc(CCC(=O)NO)cc2)cc1.Cl` [compound 9, L-2-amino-3-{4-[4-(2-hydroxycarbamoylethyl)-phenoxy]-phenyl}-N,N-dimethylpropionamide hydrochloride], the “inhibition of IL-6” value in experiment [2] is given as “inhibition”. Besides, in experiment [3] (10 μM alone, Oil red O), the “adipocyte differentiation (adipogenesis), compound alone” value is reported as “not adipogenic”. The “adipogenesis induced by PPARγ agonist, combined treatment” value in experiment [3] (compound 10 μM mixed with rosiglitazone 1 μM) is “blocks the adipogenesis process induced by PPARγ agonist”. In experiment [4], the “inhibition of IL-1β” value is “inhibition”. In experiment [5], the blood glucose levels result is on record as “No change”. In addition, in experiment [6], the NO production entry is “doses dependently inhibited NO production”. Moreover, the body weight result in experiment [1] (50 mg/kg body weight once daily for 60 days) is listed as “lowered body weight”. The oral glucose tolerance entry in experiment [1] (50 mg/kg for 60 days) was “improved”. Further, in experiment [1] (setting [7]), the “free fatty acid levels” value is reported as “significantly lowered” and the triglyceride levels entry was “significantly lowered”.
